According to US20260226064A1, “POLYCYCLIC COMPOUND FOR TREATING NEUROLOGICAL DISEASES AND TUMORS” (Shanghai Institute of Organic Chemistry, Chinese Academy of …, priority 2023, published 2026):

Test system: acetylated microtubule in HEK293T cells
Test: Microtubule-Stabilizing Activity Assay (acetylated microtubule immunoblot, HEK293T, colchicine challenge)
Type: cell-based
Conditions: 1 h pre-incubation, then colchicine 1 μM 3 h, relative to CNDR-51657 at 500 nM = 1.00; for Microtubule-Stabilizing Activity 50 nM: compound 50 nM; for Microtubule-Stabilizing Activity 500 nM: compound 500 nM
Protocol: Compound solvent: 100% dimethyl sulfoxide (DMSO). Cell line: HEK293T (ATCC, CRL3216). Culture conditions: Cells were cultured in Dulbecco's Modified Eagle's Medium (DMEM) containing 10% fetal bovine serum and 1% penicillin/streptomycin. Cells were cultured at 37° C. in a Thermo-Fisher incubator with a humidified atmosphere of 5% carbon dioxide.
One day prior to the experiment, 100,000 cells were seeded at a density of 200,000 cells/ml in a 24-well plate.
On the day of the experiment, 20 μl of PBS phosphate buffer containing the test compound at experimental concentrations or an equivalent volume of DMSO was added to each well. After incubating at 37° C. for 1 hour, colchicine was added to each well at a final concentration of 1 μM, followed by an additional 3-hour incubation at 37° C. The plate was then placed on ice. The medium in each well was removed, and the cells were washed with ice-cold PBS. After aspirating the PBS, 0.1 mL of ice-cold RIPA lysis buffer (containing 0.5% sodium deoxycholate, 0.1% SDS, 1% NP-40, 5 mM EDTA, pH 8.0) was quickly added. Prior to use, a commercial protease inhibitor cocktail (1:500) and 1 μM deacetylase inhibitor Trichostatin A (Sangon Biotech Co., Ltd.) were added to the cell lysis buffer. The cell lysate were transferred to a 1.5 ml centrifuge tube, sonicated, and centrifuged at 13,000 rpm for 10 minutes. The supernatant was collected, and protein concentration was determined using the BCA assay.
Based on existing literature (Black, 1989; Kurt, 2011), acetylated microtubule was used as an indicator of microtubule polymerization to assess the microtubule-stabilizing efficacy of the compounds. HEK293T cell lysates were analyzed by SDS-PAGE (7.5% gel) and immunoblotted using acetylated microtubule antibody (1:20,000, Sigma-Aldrich, T7451) and α-microtubule antibody (1:2,000, Proteintech, 11224-1-AP). After incubation with fluorescent dye-conjugated IgG (1:40,000, Licor), the blots were visualized using an Odyssey-Dlx imaging system. Grayscale analysis was performed using ImageJ.
The compound activity was quantified with the microtubule-stabilizing activity of CNDR-51657 (C5) (Jane, 2016) at 500 nM as 1.00.

CN(C)C1CC2(CC(Oc3cc(F)c(-c4c(Cl)nc5ncnn5c4NCC(F)(F)F)c(F)c3)C2)C1 (stereo not shown) [Example 16]
Microtubule-Stabilizing Activity 50 nM: 0.07
Microtubule-Stabilizing Activity 500 nM: 1.66

C[C@@H](Nc1c(-c2c(F)cc(OC3CC4(C3)CC(N(C)C)C4)cc2F)c(Cl)nc2ncnn12)C1CCC1 (stereo partly drawn) [Example 14, (R)-5-Chloro-N-(1-cyclobutylethyl)-6-(4-((6-(dimethylamino)spiro[3.3]heptan-2-yl)oxy)-2,6-difluorophenyl)-[1,2,4]triazolo[1,5-a]pyrimidin-7-amine]
Microtubule-Stabilizing Activity 50 nM: 0.23
Microtubule-Stabilizing Activity 500 nM: 1.98

CC(C)[C@@H](C)Nc1c(-c2c(F)cc(OC3CC4(CCNCC4)C3)cc2F)c(Cl)nc2ncnn12 [Example 5, (R)-6-(4-((7-Azaspiro[3.5]nonan-2-yl)oxy)-2,6-difluorophenyl)-5-chloro-N-(3-methylbutan-2-yl)-[1,2,4]triazolo[1,5-a]pyrimidin-7-amine]
Microtubule-Stabilizing Activity 50 nM: 0.41
Microtubule-Stabilizing Activity 500 nM: 0.76

CC(C)[C@@H](C)Nc1c(-c2c(F)cc(O[C@H]3C[C@H]4CNC[C@H]4C3)cc2F)c(Cl)nc2ncnn12 [Example 36, 5-Chloro-6-(2,6-difluoro-4-(((3aR,5r,6aS)-octahydrocyclopenta[c]pyrrol-5-yl)oxy)phenyl)-N—((R)-3-methylbutan-2-yl)-[1,2,4]triazolo[1,5-a]pyrimidin-7-amine]
Microtubule-Stabilizing Activity 50 nM: 0.47
Microtubule-Stabilizing Activity 500 nM: 0.37

Cc1nc2ncnn2c(N[C@H](C)C(C)C)c1-c1c(F)cc(OCC2[C@H]3CNC[C@@H]23)cc1F (stereo partly drawn) [Example 23, 6-(4-(((1R,5S,6r)-3-Azabicyclo[3.1.0]hex-6-yl)methoxy)-2,6-difluorophenyl)-5-methyl-N—((R)-3-methylbutan-2-yl)-[1,2,4]triazolo[1,5-a]pyrimidin-7-amine]
Microtubule-Stabilizing Activity 50 nM: 0.80
Microtubule-Stabilizing Activity 500 nM: 0.99

Cl.Fc1cc(/C=C/[C@@H]2[C@H]3CNC[C@@H]23)cc(F)c1-c1c(Cl)nc2ncnn2c1NCC(F)(F)F [Example 54, 6-(4-((E)-2-((1R,5S,6s)-3-Azabicyclo[3.1.0]hexan-6-yl)vinyl)-2,6-difluorophenyl)-5-chloro-N-(2,2,2-trifluoroethyl)-[1,2,4]triazolo[1,5-a]pyrimidin-7-amine hydrochloride]
Microtubule-Stabilizing Activity 50 nM: 1.56
Microtubule-Stabilizing Activity 500 nM: 3.12

CC(C)[C@@H](C)Nc1c(-c2c(F)cc(OC3CC4(C3)CC(N(C)C)C4)cc2F)c(Cl)nc2ncnn12 (stereo partly drawn) [Example 10, (R)-5-Chloro-6-(4-((6-(dimethylamino)spiro[3.3]heptan-2-yl)oxy)-2,6-difluorophenyl)-N-(3-methylbutan-2-yl)-[1,2,4]triazolo[1,5-a]pyrimidin-7-amine]
Microtubule-Stabilizing Activity 50 nM: 0.26
Microtubule-Stabilizing Activity 500 nM: 0.28

C[C@H](Nc1c(-c2c(F)cc(OC3CC4(CCN(C)CC4)C3)cc2F)c(Cl)nc2ncnn12)C(F)(F)F [Example 8, (S)-6-(4-((7-Methyl-7-azaspiro[3.5]nonan-2-yl)oxy)-2,6-difluorophenyl)-5-chloro-N-(1,1,1-trifluoropropan-2-yl)-[1,2,4]triazolo[1,5-a]pyrimidin-7-amine]
Microtubule-Stabilizing Activity 50 nM: 0.43
Microtubule-Stabilizing Activity 500 nM: 0.31

C[C@@H](Nc1c(-c2c(F)cc(OCC3[C@H]4CNC[C@@H]34)cc2F)c(Cl)nc2ncnn12)C1CCC1 (stereo partly drawn) [Example 26, 6-(4-(((1R,5S,6r)-3-Azabicyclo[3.1.0]hexan-6-yl)methoxy)-2,6-difluorophenyl)-5-chloro-N—((R)-1-cyclobutylethyl)-[1,2,4]triazolo[1,5-a]pyrimidin-7-amine]
Microtubule-Stabilizing Activity 50 nM: 1.35
Microtubule-Stabilizing Activity 500 nM: 1.41

C[C@H](Nc1c(-c2c(F)cc(OC3CC4(CNC4)C3)cc2F)c(Cl)nc2ncnn12)C(F)(F)F [Example 3, (S)-6-(4-((2-Azaspiro[3.3]heptan-6-yl)oxy)-2,6-difluorophenyl)-5-chloro-N-(1,1,1-trifluoropropan-2-yl)-[1,2,4]triazolo[1,5-a]pyrimidin-7-amine]
Microtubule-Stabilizing Activity 50 nM: 0.36
Microtubule-Stabilizing Activity 500 nM: 0.49

C[C@@H](Nc1c(-c2c(F)cc(OCC3[C@H]4CN(C)C[C@@H]34)cc2F)c(Cl)nc2ncnn12)C1CCC1 (stereo partly drawn) [Example 27, 5-Chloro-N—((R)-1-cyclobutylethyl)-6-(2,6-difluoro-4-(((1R,5S,6r)-3-methyl-3-azabicyclo[3.1.0]hexan-6-yl)methoxy)phenyl)-[1,2,4]triazolo[1,5-a]pyrimidin-7-amine]
Microtubule-Stabilizing Activity 50 nM: 1.64
Microtubule-Stabilizing Activity 500 nM: 1.37

C[C@H](Nc1c(-c2c(F)cc(OC3CC4(C3)CC(N(C)C)C4)cc2F)c(Cl)nc2ncnn12)C(F)(F)F (stereo partly drawn) [Example 12, (S)-5-chloro-6-(4-((6-(dimethylamino)spiro[3.3]heptan-2-yl)oxy)-2,6-difluorophenyl)-N-(1,1,1-trifluoropropan-2-yl)-[1,2,4]triazolo[1,5-a]pyrimidin-7-amine]
Microtubule-Stabilizing Activity 50 nM: 0.30
Microtubule-Stabilizing Activity 500 nM: 0.78

CC(C)[C@@H](C)Nc1c(-c2c(F)cc(OC3CC4(CCC(N(C)C)CC4)C3)cc2F)c(Cl)nc2ncnn12 (stereo partly drawn) [Example 18, (R)-5-Chloro-6-(2,6-difluoro-4-((7-(dimethylamino)spiro[3.5]nonan-2-yl)oxy)phenyl)-N-(3-methylbutan-2-yl)-[1,2,4]triazolo[1,5-a]pyrimidin-7-amine]
Microtubule-Stabilizing Activity 50 nM: 0.07
Microtubule-Stabilizing Activity 500 nM: 0.68

CN1C[C@@H]2[C@@H](COc3cc(F)c(-c4c(Cl)nc5ncnn5c4NCC(F)(F)F)c(F)c3)[C@@H]2C1 [Example 34, 5-Chloro-6-(2,6-difluoro-4-(((1R,5S,6r)-3-methyl-3-azabicyclo[3.1.0]hexan-6-yl)methoxy)phenyl)-N-(2,2,2-trifluoroethyl)-[1,2,4]triazolo[1,5-a]pyrimidin-7-amine]
Microtubule-Stabilizing Activity 50 nM: 1.05
Microtubule-Stabilizing Activity 500 nM: 2.10

C[C@H](Nc1c(-c2c(F)cc(OC3CC4(CCNCC4)C3)cc2F)c(Cl)nc2ncnn12)C(F)(F)F [Example 7, (S)-6-(4-((7-Azaspiro[3.5]nonan-2-yl)oxy)-2,6-difluorophenyl)-5-chloro-N-(1,1,1-trifluoropropan-2-yl)-[1,2,4]triazolo[1,5-a]pyrimidin-7-amine]
Microtubule-Stabilizing Activity 50 nM: 0.42
Microtubule-Stabilizing Activity 500 nM: 0.81

CC(C)[C@@H](C)Nc1c(-c2c(F)cc(OC3CC4(C3)CN(C)C4)cc2F)c(Cl)nc2ncnn12 [Example 2, (R)-6-(4-((2-methyl-2-azaspiro[3.3]hept-6-yl)oxy)-2,6-difluorophenyl)-5-chloro-N-(3-methylbut-2-yl)-[1,2,4]triazolo[1,5-a]pyrimidin-7-amine]
Microtubule-Stabilizing Activity 50 nM: 0.29
Microtubule-Stabilizing Activity 500 nM: 0.71

C[C@H](Nc1c(-c2c(F)cc(OC[C@@H]3[C@@H]4CNC[C@@H]43)cc2F)c(Cl)nc2ncnn12)C(F)(F)F [Example 31, 6-(4-(((1R,5S,6s)-3-Azabicyclo[3.1.0]hex-6-yl)methoxy)-2,6-difluorophenyl)-5-chloro-N—((S)-1,1,1-trifluoropropan-2-yl)-[1,2,4]triazolo[1,5-a]pyrimidin-7-amine]
Microtubule-Stabilizing Activity 50 nM: 0.35
Microtubule-Stabilizing Activity 500 nM: 1.25

Cc1nc2ncnn2c(N[C@H](C)C2CCC2)c1-c1c(F)cc(OCC2[C@H]3CNC[C@@H]23)cc1F (stereo partly drawn) [Example 28, 6-(4-(((1R,5S,6r)-3-Azabicyclo[3.1.0]hexan-6-yl)methoxy)-2,6-difluorophenyl)-5-methyl-N—((R)-1-cyclobutylethyl)-[1,2,4]triazolo[1,5-a]pyrimidin-7-amine]
Microtubule-Stabilizing Activity 50 nM: 1.65
Microtubule-Stabilizing Activity 500 nM: 1.43

C[C@H](Nc1c(-c2c(F)cc(O[C@H]3C[C@H]4CNC[C@H]4C3)cc2F)c(Cl)nc2ncnn12)C(F)(F)F [Example 38, 5-Chloro-6-(2,6-difluoro-4-(((3aR,5r,6aS)-octahydrocyclopenta[c]pyrrol-5-yl)oxy)phenyl)-N—((S)-1,1,1-trifluoropropan-2-yl)-[1,2,4]triazolo[1,5-a]pyrimidin-7-amine]
Microtubule-Stabilizing Activity 50 nM: 0.31
Microtubule-Stabilizing Activity 500 nM: 0.95

CNC1CCC2(CC1)CC(Oc1cc(F)c(-c3c(Cl)nc4ncnn4c3N[C@H](C)C(C)C)c(F)c1)C2 (stereo partly drawn) [Example 17, (R)-5-Chloro-6-(2,6-difluoro-4-((7-(methylamino)spiro[3.5]nonan-2-yl)oxy)phenyl)-N-(3-methylbutan-2-yl)-[1,2,4]triazolo[1,5-a]pyrimidin-7-amine]
Microtubule-Stabilizing Activity 50 nM: 0.21
Microtubule-Stabilizing Activity 500 nM: 0.89
